Data published in patent US20250319049A1, “Additive for animal nutrition” (ADISSEO FRANCE S.A.S., priority 2022, published 2025).

Legend:
[1] = hydrolysis in drinking water; assay type: physicochemical; conditions: drinking water of livestock
[2] = in vitro upper digestive tract model (simulated chicken crop, proventriculus/gizzard, intestine): release of butyric acid; assay type: in vitro ADME; conditions: 50 mM butyric acid equivalent; for release of butyric acid in the stomach: proventriculus/gizzard 45 min at pH 3, 40° C. with pepsin
Experimental: The experimental tests were conducted in in vitro models described below.
The method developed by Menezez and Blackburn was used to simulate the chicken digestive tract [Menezes-Blackburn D, Gabler S, Greiner R. «Performance of Seven Commercial Phytases in an in Vitro Simulation of Poultry Digestive Tract.»J Agric Food Chem. 2015 Jul. 15; 63 (27): 6142-9]. It consists of simulating the 3 compartments of the upper part of the digestive tract: the crop (30 min at pH 5, 40° C. with stirring), the proventriculus/gizzard (45 min at pH 3, 40° C. with stirring with the addition of pepsin), the intestine (60 min at pH 6.5, 40° C. with stirring with the addition of pancreatin and bile extract). The rate of protection and release of butyrate for each molecule (50 mM butyric acid equivalent of the butyryl lactylate of the disclosure or tributyrin of the prior art) was evaluated in each compartment sequentially (quantification of the release of butyric acid and residual butyric ester).

[3] = solubility in water; assay type: physicochemical
[4] = in vitro lower digestive tract model (caecal fermentation): release of butyric acid; assay type: in vitro ADME, broiler chickens (Ross PM33); conditions: 50 mM butyric acid equivalent; upper tract model plus caecal fermentation 24 hours at 40° C.
Experimental: Twelve twenty-one-day-old broiler chickens (Ross PM33), housed in cages, fed and watered ad libitum, were euthanized and their caecal contents were collected and pooled. All experiments were conducted in accordance with the European Union animal protection guidelines and the legislation governing the ethical treatment of animals, and the researchers were certified by the French government to conduct animal experiments. The facilities of the Centre of Expertise and Research in Nutrition comply with Convention No. C 03 159 4 of 6 Nov. 2008, relating to experiments on living vertebrate animals (European Regulation 24/11/86 86/609 EEC; Ministerial Order of 19 Apr. 1988).
The cecal contents were mixed (5% w/v) with an anaerobic buffer prepared according to Theodorou et al. [Theodorou, Michael K., et al. “A simple gas production method using a pressure transducer to determine the fermentation kinetics of ruminant feeds.” Animal feed science and technology 48.3-4 (1994): 185-197], then the microbial suspension transferred into Hungate tubes containing 50 mM of butyric acid equivalent for each candidate (butyryl lactylate of the disclosure or tributyrin of the prior art) and incubated for 24 hours with constant stirring at 40° C.
At the end of the fermentation, the butyric acid and residual butyric ester were quantified.

[5] = palatability / growth performance test in post-weaning piglets; assay type: in vivo; parameters: concentration or dose not given beside the values; conditions: butyrate source in standard feed (STD); for BWG (body weight gain), effect compared to a standard control: 36-49 days old; for FCR (feed conversion ratio), effect compared to a standard control / FI (feed intake), effect compared to a standard control: 36-49 days
Experimental: This evaluation was carried out by in vivo tests conducted in broilers and in piglets at the post-weaning stage.
The animals were placed in normal breeding conditions.
They were divided into four distinct groups, and each group received for about ten days (from 36 to 49 days of age) a standard feed (STD) containing a source of butyrate. Several sources of butyrate were compared: the butyryl lactylate of the disclosure and two protected forms of butyrate, commercially available, a coated butyrate (fat-coated) and tributyrin.
The growth performances and feed consumption were measured at the beginning and end of the study.

[6] = palatability / growth performance test in broilers; assay type: in vivo; conditions: broiler chickens, 17-21 days, butyrate source incorporated in standard feed (STD), five days
Experimental: This evaluation was carried out by in vivo tests conducted in broilers and in piglets at the post-weaning stage. The chickens were placed in normal breeding conditions. They were divided into several groups, and each group received for five days a feed containing a source of butyrate, incorporated directly into a standard feed (STD). […] The growth performances and feed consumption were measured at the beginning and end of the study.

[7] = listed as STD + Butyryl lactylate
[8] = listed as STD + butyryl lactylate
[9] = listed as STD + tributyrine butyrate

SMILES | release of butyric acid in the stomach [2] | BWG (body weight gain), effect compared to a standard control [5] | FCR (feed conversion ratio), effect compared to a standard control [5] | FI (feed intake), effect compared to a standard control [5] | BWG (body weight gain), effect compared to a standard diet [6] | FCR (feed conversion ratio), effect compared to a standard diet [6] | FI (feed intake), effect compared to a standard diet [6] | further results
CCCC(=O)OC(C)C(=O)O (stereo not shown) [butyryl lactylate] | does not release butyric acid in the stomach | +21% | −4% | +16% | +10% | −6.7% | +2.8% | hydrolysis into lactic acid and free butyric acid in drinking water [1]: without risk of hydrolysis; solubility in water [3]: soluble in water; intestinal release profile of butyric acid, upper and lower intestine [4]: balanced release in the upper and lower intestine; BWG (body weight gain), effect compared to a standard control [5, 7]: +21%; FCR (feed conversion ratio), effect compared to a standard control [5, 7]: −4.8%; FI (feed intake), effect compared to a standard control [5, 7]: +16%; BWG (body weight gain), effect compared to a standard diet [6, 8]: +10%; FI (feed intake), effect compared to a standard diet [6, 8]: +2.8%
CCCC(=O)OCC(COC(=O)CCC)OC(=O)CCC [tributyrin, reference compound] | significant gastric loss | −17% | +3.3% | −14% | −9% | +6.6% | −3% | release of butyric acid in the intestine (upper part) ([2]; intestine 60 min at pH 6.5, 40° C. with pancreatin and bile extract): complete release at the beginning of the small intestine; BWG (body weight gain), effect compared to a standard control [5, 9]: −17%; FCR (feed conversion ratio), effect compared to a standard control [5, 9]: +3.3%; FI (feed intake), effect compared to a standard control [5, 9]: −14%; BWG (body weight gain), effect compared to a standard diet [6, 9]: −9%; FI (feed intake), effect compared to a standard diet [6, 9]: −3%
